Laboratory results published in ChEMBL document CHEMBL1137198, “Discovery of thiadiazoles as a novel structural class of potent and selective PDE7 inhibitors. Part 2: metabolism-directed optimization studies towards orally bioavailable derivatives” (Bioorg Med Chem Lett, 2004).
≈ marks a conversion by molar mass, not a printed value.

How the values were obtained:
[1] = Solubility at pH 7.4; type: physicochemical; details: buffer
[2] = Clearance at 0.5 mg/kg i.v.; type: ADME, organism-based; set-up: dose 0.5 mg/kg, route intravenous; details: in vivo, iv
[3] = Volume of distribution at 0.5 mg/kg i.v.; type: ADME, organism-based; set-up: dose 0.5 mg/kg, route intravenous; details: in vivo, iv
[4] = Half life at 2.5 mg/kg po.; type: ADME, organism-based; set-up: dose 2.5 mg/kg; details: in vivo
[5] = Oral bioavailability (dose 2.5 mg/kg); type: ADME, organism-based; details: eutheria, in vivo
[6] = Reduction in Clearance when compared with compound 1; type: ADME, organism-based; details: in vivo
[7] = Reduction in clearance when compared with compound 1; type: ADME, organism-based; details: in vivo
[8] = Inhibition of human Phosphodiesterase 7A1 or human phosphodiesterase 4D3 expressed in baculovirus infected Sf9 cells

Row | solubility ([1]; read-out: Solubility) | clearance [2] | Vd ([3]; read-out: Vd) | half-life [4] | bioavailability [5] | solubility [1] | Cl [2] | CL_Ratio [6] | Vd [3] | T1/2 [4] | CL_Ratio [7] | IC50 [8] | F [5] | Compound
1 | 370 µg/mL (≈ 950 µM) | 15.8 mL/min/kg | 7.58 L/kg | 2.7 h | 29.3% | – | – | – | – | – | – | – | – | Cn1nc(-c2ccc(S(C)(=O)=O)cc2)s/c1=N\c1cccc(C(=O)O)c1
2 | – | 66.9 mL/min/kg | 0.98 L/kg | 0.27 h | 7% | – | – | – | – | – | 62% | – | – | Cn1nc(-c2ccc(C(N)=O)cc2)s/c1=N\C1CCC(O)CC1 (centres undefined)
3 | 295 µg/mL (≈ 877 µM) | 2.65 mL/min/kg | 0.99 L/kg | 4.75 h | 37% | – | – | – | – | – | – | – | – | Cn1nc(-c2cccc(C#N)c2)s/c1=N\c1cccc(C(=O)O)c1
4 | 350 µg/mL (≈ 1010 µM) | 13.3 mL/min/kg | 2.02 L/kg | 2.3 h | 76% | – | – | 92% | – | – | – | – | – | CC(=O)Nc1ccc(-c2nn(C)/c(=N/C3CCCC(O)C3)s2)cc1 (trans isomer)
5 | 145 µg/mL (≈ 399 µM) | 3.9 mL/min/kg | 0.18 L/kg | 1.96 h | 49.3% | – | – | – | – | – | – | – | – | Cn1nc(-c2ccc(Cl)cc2)s/c1=N\c1ccc(F)c(C(=O)O)c1
6 | – | 38.2 mL/min/kg | 1.47 L/kg | 0.31 h | 24.7% | – | – | – | – | – | 79% | – | – | Cn1nc(-c2ccc(C(N)=O)cc2)s/c1=N\C1CCCCC1O (stereo in doubt; trans)
7 | – | 34.4 mL/min/kg | 1.39 L/kg | 1.42 h | – | – | – | – | – | – | 81% | 1650 nM | 61.2% | Cn1nc(-c2ccc(C(N)=O)cc2)s/c1=N\C1CCCC(O)C1 (stereo in doubt; cis)
8 | – | – | – | – | – | – | 59.9 mL/min/kg | – | 1.78 L/kg | 1.8 h | 67% | – | 38.5% | Cn1nc(-c2ccc(C(N)=O)cc2)s/c1=N\C1CCCC(O)C1 (stereo in doubt; trans)

More lines, now with the values behind:

Row | Compound | solubility ([1]; read-out: Solubility) | clearance [2] | Vd ([3]; read-out: Vd) | half-life [4] | bioavailability [5] | solubility [1] | Cl [2] | CL_Ratio [6] | Vd [3] | T1/2 [4] | CL_Ratio [7] | IC50 [8] | F [5]
9 | Cn1nc(-c2ccc(S(C)(=O)=O)cc2)s/c1=N\C1CCCC(O)C1 (stereo in doubt; 21a 9(R,R)) | – | – | – | – | – | 160 µg/mL (≈ 435 µM) | 15.1 mL/min/kg | 91% | 0.62 L/kg | 2.5 h | – | – | –
10 | CN1CCN(C(=O)c2ccc(-c3nn(C)/c(=N/C4CCCCC4)s3)cc2)CC1 | 350 µg/mL (≈ 876 µM) | 44.8 mL/min/kg | 2.59 L/kg | 1.37 h | 85% | – | – | 75% | – | – | – | – | –
11 | CC(=O)Nc1ccc(-c2nn(C)/c(=N/C3CCCCC3)s2)cc1 | 8 µg/mL (≈ 24.2 µM) | 74.7 mL/min/kg | 3.3 L/kg | 0.74 h | 19.6% | – | – | 58% | – | – | – | – | –
12 | Cn1nc(-c2ccc(C(=O)NC(C)(C)CO)cc2)s/c1=N\C1CCCC(O)C1 (centres undefined) | 58 µg/mL (≈ 143 µM) | 24.9 mL/min/kg | 0.43 L/kg | 0.46 h | 63% | – | – | 86% | – | – | – | – | –
13 | Cn1nc(-c2ccc(S(C)(=O)=O)cc2)s/c1=N\C1CCCC(O)C1 (stereo in doubt) | 135 µg/mL (≈ 367 µM) | 12.2 mL/min/kg | 0.92 L/kg | 2 h | 100% | – | – | 93% | – | – | – | – | –
14 | Cn1nc(-c2ccc(C(N)=O)cc2)s/c1=N\C1CCCCC1 | 4 µg/mL (≈ 12.6 µM) | 179 mL/min/kg | 7.65 L/kg | – | – | – | – | – | – | – | – | – | –
